Test results published in patent publication US20060063711A1, “Use of sglt homolog” (priority 2002, published 2006).

What was measured:
human SGLT1 [1] = molecular target: T1, human SGLT1 (Homo sapiens, UniProt P13866); test: kinetic analysis of glucose uptake in human SGLT1-transfected COS7 cells
T1 sequence (P13866 1-664): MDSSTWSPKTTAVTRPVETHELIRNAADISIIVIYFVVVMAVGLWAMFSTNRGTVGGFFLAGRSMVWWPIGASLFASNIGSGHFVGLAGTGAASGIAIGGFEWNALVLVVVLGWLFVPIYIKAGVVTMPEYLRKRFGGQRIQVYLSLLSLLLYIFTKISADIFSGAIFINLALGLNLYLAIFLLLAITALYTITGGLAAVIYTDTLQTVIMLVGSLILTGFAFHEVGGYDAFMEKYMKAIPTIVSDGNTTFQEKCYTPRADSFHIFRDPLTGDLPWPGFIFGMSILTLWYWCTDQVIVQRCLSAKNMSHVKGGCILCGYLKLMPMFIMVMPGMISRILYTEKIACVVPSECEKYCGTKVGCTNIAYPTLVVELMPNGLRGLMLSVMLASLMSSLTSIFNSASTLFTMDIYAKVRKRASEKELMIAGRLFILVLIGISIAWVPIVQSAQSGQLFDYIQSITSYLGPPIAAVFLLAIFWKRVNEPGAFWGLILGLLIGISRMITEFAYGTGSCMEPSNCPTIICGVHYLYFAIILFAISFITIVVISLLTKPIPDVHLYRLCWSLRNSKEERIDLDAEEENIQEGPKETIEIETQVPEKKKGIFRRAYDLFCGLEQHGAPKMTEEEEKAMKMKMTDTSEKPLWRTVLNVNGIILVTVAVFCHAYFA
Protocol: (§2) The human SGLT homolog or the human SGLT1-transfected COS7 cells were prepared and subjected to kinetic analysis of glucose uptake, respectively. […] The cells were plated on 100 μl of DMEM medium containing 10% FBS charged in a 96-well plate in a cell density of 3×10^4 cells/well, followed by culturing overnight at 37° C. […] Then 90 μl each of the thus prepared mixtures was added per well. In addition, 10 μl each of α-methyl glucose in a final concentration of 1 mM, which contained 0.02 μCi of [^14C]-α-methyl glucose (Amersham Pharmacia Biotech, Inc.), was added per well to carry out a glucose uptake reaction for an hour. After washing 3 times with 200 μl of chilled PBS, 100 μl each of liquid scintillator was added per well and the radioactivity of ^14C taken up into the cells was counted with a scintillation counter to determine Km and Vmax in the glucose uptake.

human SGLT homolog [2] = molecular target: T2, human SGLT homolog (Homo sapiens, UniProt Q2M3M2, I269M); test: kinetic analysis of glucose uptake in human SGLT homolog-transfected COS7 cells
T2 sequence (Q2M3M2 8-681 I269M limits assumed): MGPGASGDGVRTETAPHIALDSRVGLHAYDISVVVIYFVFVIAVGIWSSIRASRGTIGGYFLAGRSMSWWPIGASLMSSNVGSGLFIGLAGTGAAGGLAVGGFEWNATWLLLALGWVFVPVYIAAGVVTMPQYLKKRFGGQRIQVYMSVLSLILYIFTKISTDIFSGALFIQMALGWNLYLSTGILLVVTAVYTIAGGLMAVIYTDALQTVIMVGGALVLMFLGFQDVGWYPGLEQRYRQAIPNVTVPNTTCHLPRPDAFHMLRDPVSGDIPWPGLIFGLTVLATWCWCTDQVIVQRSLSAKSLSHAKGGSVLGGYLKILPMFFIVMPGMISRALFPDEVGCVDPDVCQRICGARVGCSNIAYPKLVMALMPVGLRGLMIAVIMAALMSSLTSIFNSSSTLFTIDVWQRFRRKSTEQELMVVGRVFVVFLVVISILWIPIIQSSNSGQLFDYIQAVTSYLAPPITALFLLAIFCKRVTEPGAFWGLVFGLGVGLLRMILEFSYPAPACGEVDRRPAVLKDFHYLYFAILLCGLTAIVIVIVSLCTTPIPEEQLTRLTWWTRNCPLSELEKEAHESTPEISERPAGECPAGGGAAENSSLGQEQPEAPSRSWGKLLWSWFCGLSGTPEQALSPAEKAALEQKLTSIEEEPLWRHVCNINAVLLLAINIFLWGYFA
Protocol: as §2

human SGLT homolog [3] = molecular target: T2, human SGLT homolog; test: substrate specificity, α-methyl glucose uptake test in human SGLT homolog-transfected COS7 cells; type: cell-based; parameters: expressed in transfected cells; host or cells: COS7 cells; settings: sugar added at 0, 1 and 10 mM
Protocol: (§1) The human SGLT homolog or human SGLT1-transfected COS7 cells were prepared and the respective substrate specificities were examined. The α-methyl glucose uptake test was carried out in accordance with the procedures described in Am. J. Physiol., 270: G833-G843, 1996 and J. Clin. Invest., 93: 397-404, 1994. The cells were plated on 100 μl of DMEM medium containing 10% FBS charged in a 96-well plate in a cell density of 3×10^4 cells/well, followed by culturing overnight at 37° C. Each well was washed 3 times with a reaction buffer solution supplemented with 125 mM N-Methyl-D-Glucamine (1.2 mM KH2PO4, 2.5 mM CaCl2, 1.2 mM MgSO4, 4 mM Glutamine, 10 mM HEPES (pH 7.2), 0.1 mg/ml BSA) and further cultured for an hour in the same buffer solution to remove the glucose remained in the cells. Next, 150 mM NaCl was added to the reaction buffer solution above and glucose or galactose was added to the mixture in 0, 1 and 10 mM, respectively. Then 90 μl each of the thus prepared mixtures was added per well. […] After washing 3 times with 200 μl of chilled PBS, 100 μl each of liquid scintillator was added per well and the radioactivity of ^14C taken up into the cells was counted with a scintillation counter.

human SGLT1 [4] = molecular target: T1, human SGLT1; test: substrate specificity, α-methyl glucose uptake test in human SGLT1-transfected COS7 cells; type: cell-based; parameters: expressed in transfected cells; host or cells: COS7 cells; settings: sugar added at 0, 1 and 10 mM
Protocol: as §1

[5] = read-out: Km in the glucose uptake, α-methyl glucose 0 to 20 mM, 150 mM NaCl
[6] = α-methyl glucose 0 to 20 mM, 150 mM NaCl

Compound	Km (human SGLT1 [1]; [5]) [mM]	Vmax in the glucose uptake (human SGLT1 [1]; [6]) [nmol/hour/106 cells]	Km (human SGLT homolog [2]; [5]) [mM]	Vmax in the glucose uptake (human SGLT homolog [2]; [6]) [nmol/hour/106 cells]	affinity (competition of α-methyl glucose uptake) (human SGLT homolog [3])	affinity (competition of α-methyl glucose uptake) (human SGLT1 [4])
COC1OC(CO)C(O)C(O)C1O (stereo not drawn) [α-methyl glucose]	1.8	3.9	7.9	8.0		
O=C[C@H](O)[C@@H](O)[C@@H](O)[C@H](O)CO [galactose]					little affinity	had affinity
